Experiments:
HSF1 regulated genes = assay: Example 1 in vivo pharmacodynamic study via subcutaneous dosing: expression of genes upregulated by HSF1 activation; set-up: species or system mouse
Protocol: (§1) Wildtype mice (3 per group) were dosed subcutaneously at 0, 0.5, 1.5, 5 and 10 mg/kg (6aS)-6-methyl-5,6,6a,7-tetrahydro-4H-dibenzo[de,g]quinoline-10,11-diol hydrochloride for 7 days once daily. One animal in the 10 mg/kg dosing group was actually dosed 15 mg/kg on Day 1. To prepare the dosing solutions, (6aS)-6-methyl-5,6,6a,7-tetrahydro-4H-dibenzo[de,g]quinoline-10,11-diol was pre-weighed into bijous and stored in foil.

NRF2 = assay: Example 1 in vivo pharmacodynamic study via subcutaneous dosing: expression of genes upregulated by NRF2 activation; set-up: species or system mouse; details: wildtype mice
Protocol: as §1

[1] = system: Nrf2 and HSF1 target genes; assay: Example 4 target engagement qPCR of cortex tissue; type: in vivo, mouse; details: normalized to Gapdh
Protocol: This in vivo pharmacology study was designed to test the efficacy of (6aS)-6-methyl-5,6,6a,7-tetrahydro-4H-dibenzo[de,g]quinoline-10,11-diol on the progression of motor and cognitive decline in the TDP-43^Q331K mouse model. In addition, tissue was collected at the end of the experiment for target engagement (gene expression) analysis of Nrf2 and HSF1 target genes.
Following genotyping, transgenic females were block randomized into three different dosing groups: vehicle once daily, 2.5 mg/kg (6aS)-6-methyl-5,6,6a,7-tetrahydro-4H-dibenzo[de,g]quinoline-10,11-diol twice daily and 5 mg/kg (6aS)-6-methyl-5,6,6a,7-tetrahydro-4H-dibenzo[de,g]quinoline-10,11-diol once daily. The doses were selected based on results of previous internal studies. Animals were weighed daily before dosing and dosed subcutaneously at 10 ml/kg with a solution of 0.5 mg/ml (6aS)-6-methyl-5,6,6a,7-tetrahydro-4H-dibenzo[de,g]quinoline-10,11-diol for the 5 mg/kg dose and 0.25 mg/ml for the 2.5 mg/kg dose. Where animals were dosed twice a day, the doses were at least 6 hours apart and the dosing solution was freshly made for the second dose of the day.
The study was designed with two main cohorts of mice. One cohort was dosed from 25 days of age until 6 months of age and mice had behavioral testing throughout the study and consisted of 14 mice per group. The other satellite cohort was dosed from 25 days of age until 3 months of age, with no behavioral testing and consisted of 6 mice per group for target engagement and histological assessment. Behavioral tests that were carried out during the experiment were: accelerated rotarod test, gait analysis, and electrophysiology.
Tissue was collected at 24 hours after the final morning dose. All animals were overdosed with an intraperitoneal injection of pentibarital (JML, M042) at the time of tissue collection (2.5 ml/kg). In the 6 month cohort (n=14), 7 animals per group were perfused to fix tissue for histology. For these animals, once animals had lost pedal reflex, the chest cavity was opened and 10 ml of PBS was perfused via the heart, followed by 10 ml of 4% PFA. Brain and spinal cord were extracted and stored in 4% PFA overnight before being changed to PBS. The lumbar section of the spinal cord was dissected and embedded. For the remaining 7 animals per group, once the animals had lost pedal reflex, blood was extracted via a cardiac puncture technique. The blood was collected and stored in 1 ml of RNALater (ThermoFisher). Spinal cords were removed and the upper section of spinal cord was snap frozen in liquid nitrogen for protein analysis, while the lower section was stored in RNALater and stored at −20° C. Cortex was removed and dissected into four parts, the front left segment was stored in RNALater, while the three other sections were snap frozen in liquid nitrogen.
For the 3 month cohort, tissue was collected in a similar way to the snap frozen tissue for 6 month cohort, however where tissue was stored in RNALater for the 6 month cohort, it was processed for RNA extraction immediately in the 3 month cohort.
RNA was extracted from lower spinal cord and cortex using the RNeasy lipid tissue mini kit (Qiagen, 74804) following the manufactures protocol. Briefly tissue was homogenized in a small volume (150 μl) of QIAzol using a hand-held homogenizer in a fume hood. Once homogenized, the total volume of QIAzol was increased to 1 ml. Samples were incubated at room temperature for 5 minutes after which 200 μl of chloroform (Honeywell) was added and samples were shaken vigorously for 15 seconds. Mixed samples were then incubated at room temperature for 3 minutes then centrifuged at 12,000g for 15 minutes at 4° C. in a bench top microcentrifuge.
The upper aqueous phase of the sample was transferred to a fresh labelled tube and 1 volume of 70% ethanol was added. Samples were vortexed and 700 μl of sample was transferred to RNeasy mini spin columns attached to 2 ml collection tubes. […]

NQO1 = assay: Example 5 western blot protein analysis in induced astrocytes; type: cell-based; details: human iAstrocytes (CTR, C9orf72, sALS, SOD1 donors), 10 uM, 48 hours treatment
Source text: Induced NPCs were generated from adult human fibroblasts from patients who had been diagnosed with ALS and from age-matched healthy controls, using an approach reported previously (Kim et al PNAS, […]. 108(19), 7838-7843; Meyer et al., PNAS, 2014. 111(2), 829-832). Induced NPCs are differentiated into induced astrocytes (iAstrocytes) by culturing the progenitors in iAstrocyte medium for a total of 7 days with a medium change at day 3.
Cells were scraped from 10 cm dishes and cell pellets were lysed in ice cold IP lysis buffer (150 mM NaCl, 50 mM HEPES, 1 mM EDTA, 1 mM DTT, 0.5% (v/v) Triton X-100, protease inhibitor cocktail, pH 8.0) for 15 minutes and further homogenized using a 25-gauge needle and syringe. Protein samples were separated by SDS-Polyacrylamide Gel Electrophoresis and then semi-dry transferred onto nitrocellulose membranes. Membranes were blotted with Anti-NQO1—1:1000 (5% milk/TBST); rabbit; abcam; ab34173 at 4° C. overnight and anti-Beta-actin—1:5,000 (5% milk/TBST); mouse; abcam; ab6276 clone AC-15 at 4° C. overnight.

dopamine receptors = details: background description; cited from earlier work
[2] = wildtype mice, 1.5 mg/kg s.c. once daily 7 days, 24 hours post final dose, compared to Actb
[3] = wildtype mice, 5 mg/kg s.c. once daily 7 days, 24 hours post final dose, compared to Gapdh
[4] = wildtype mice, 10 mg/kg s.c. once daily 7 days, 6 hours post final dose, compared to Actb
[5] = wildtype mice, 10 mg/kg s.c. once daily 7 days, 6 hours post final dose, compared to Gapdh
[6] = 5 mg/kg s.c. once daily 7 days, 24 hours post final dose, compared to Gapdh
[7] = 10 mg/kg s.c. once daily 7 days, 24 hours post final dose, compared to Actb
[8] = 3 months, 2.5 mg/kg dosing group

CN1CCc2cccc3c2[C@@H]1Cc1ccc(O)c(O)c1-3 [(6aS)-6-methyl-5,6,6a,7-tetrahydro-4H-dibenzo[de,g]quinoline-10,11-diol]
dose at which HSF1 regulated genes are activated (Hspa1a and Dnajb1 gene inductions) (HSF1 regulated genes; mice, s.c. once daily 7 days, Example 1): ≥ 0.5 mg/kg | Hspa1a gene induction (HSF1 regulated genes; [2]): 2.3 fold | Pgc1a gene induction (HSF1 regulated genes; [2]): 1.7 fold | Hspa1a gene induction (HSF1 regulated genes; [3]): 2.3 fold | Pgc1a gene induction (HSF1 regulated genes; [3]): 1.7 fold | Hspa1a gene induction (HSF1 regulated genes; [4]): 2.0 fold | Pgc1a gene induction (HSF1 regulated genes; [4]): 1.5 fold | Dnajb1 gene induction (HSF1 regulated genes; [5]): 1.3 fold | Hspa1a gene induction (HSF1 regulated genes; [5]): 2.2 fold | Pgc1a gene induction (HSF1 regulated genes; wildtype mice, repeated dose of 5 mg/kg s.c. once daily 7 days, compared to Gapdh (6 hours post final dose per preceding sentence)): 1.8 fold | Gclm gene induction (NRF2; 5 mg/kg s.c. once daily 7 days, 6 hours post final dose, compared to Gapdh): 1.5 fold | Gclm gene induction (NRF2; [6]): 1.5 fold | Nqo1 gene induction (NRF2; [6]): 1.3 fold | Gclm gene induction (NRF2; 10 mg/kg s.c. once daily 7 days, 6 hours post final dose, compared to Actb): 1.4 fold | Gclm gene induction (NRF2; [7]): 1.2 fold | NRF2-responsive gene induction (NRF2; [7]): 1.4 fold | GSR relative mRNA level compared to vehicle [1, 8]: upregulation | Nqo1 relative mRNA level compared to vehicle [1, 8]: upregulation | Osgin1 relative mRNA level compared to vehicle [1, 8]: upregulation | GSR relative mRNA level compared to vehicle ([1]; 3 months, 5 mg/kg dosing group): significant upregulation | Hspa1a relative mRNA level compared to vehicle ([1]; 3 months, 5 mg/kg dosing group): significant upregulation | Nqo1 relative mRNA level compared to vehicle ([1]; 3 months, 5 mg/kg dosing group): significant upregulation | Sqstm1 relative mRNA level compared to vehicle ([1]; 3 months, 5 mg/kg dosing group): significant upregulation | Hspa1a relative mRNA level compared to vehicle ([1]; 6 months, 2.5 mg/kg twice daily): significant upregulation | Hspa1a relative mRNA level compared to vehicle ([1]; 6 months, 5 mg/kg daily): significant upregulation | NQO1 protein (western blot quantification) compared to DMSO treatment (NQO1): significant increase | activity on dopamine receptors (in words) (dopamine receptors): weak dopamine antagonist

From patent US20220265635A1, “TREATMENT OF NEUROLOGICAL DISEASE” (Aclipse One Inc., priority 2018, published 2022)
